The values that follow come from patent publication US4764533A, “Erythro-1,2-1-pentanones” (Klinge Pharma GmbH, priority 1981, dated 1988).

Test [1] deals with mammatumors induced by 7,12-dimethylbenz(a)anthracene. Description: Mammatumor inhibiting effect (7,12-dimethylbenz(a)anthracene-induced mammatumors). Type of test: in vivo, rat (female Spraque-Dawley, Hannover strain). The conditions noted are these: 3 mg/kg/day, esophageal tube, 28 days, six times per week; 10 animals; control animals valued at 100%. The method, then: The tumor inhibiting action was measured following a four-week treatment with the active ingredient on female rats, with mammatumors induced previously with 7,12-dimethylbenz(a)anthracene.
The tumor inhibiting effect was determined on the model of mammatumors induced by means of 7,12-dimethylbenz(a)anthracene of female Spraque-Dawley rats (Hannover strain), by the method of M. J. Golder (Europ. J. Cancer 11, 571 (1975)) and D. P. Griswold et al. (Cancer Research 26, 2169 (1966)).
The test substance were taken up in a 0.25% agar solution and administered by esophageal tube over a period of 28 days, six times per week. Twice weekly and on the 28th day of the experiment, the number of animals was ascertained and the tumor surface (mm^2 /animal) of the therapy and control animals measured. At the completion of the experiment, the percentage increase of the average tumor surface of the treated animals was determined, compared with the control animals, which were valued at 100%.

The target in another test is T1, estradiol receptor (Oryctolagus cuniculus, UniProt G1SML6).
T1 construct: The uterus cytosal of female, prepubertal, white rabbits (New Zealand); from tissue; host or cells: uterus cytosol of female prepubertal New Zealand white rabbits
T1 sequence (G1SML6 1-598): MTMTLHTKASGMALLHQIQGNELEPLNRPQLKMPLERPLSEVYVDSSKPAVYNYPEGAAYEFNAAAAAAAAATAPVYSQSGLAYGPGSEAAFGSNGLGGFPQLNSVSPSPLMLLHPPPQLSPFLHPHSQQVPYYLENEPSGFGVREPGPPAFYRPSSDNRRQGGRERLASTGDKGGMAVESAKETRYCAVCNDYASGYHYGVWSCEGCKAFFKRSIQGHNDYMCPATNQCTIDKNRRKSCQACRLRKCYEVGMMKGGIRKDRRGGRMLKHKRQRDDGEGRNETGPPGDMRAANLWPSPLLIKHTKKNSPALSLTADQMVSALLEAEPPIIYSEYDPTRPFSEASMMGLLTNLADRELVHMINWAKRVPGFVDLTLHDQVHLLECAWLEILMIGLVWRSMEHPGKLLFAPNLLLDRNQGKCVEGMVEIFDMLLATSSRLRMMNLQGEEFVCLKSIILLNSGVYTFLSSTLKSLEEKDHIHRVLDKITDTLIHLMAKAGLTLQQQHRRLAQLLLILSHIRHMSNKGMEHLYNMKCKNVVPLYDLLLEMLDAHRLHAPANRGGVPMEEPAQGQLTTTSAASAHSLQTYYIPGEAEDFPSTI
Description: Bonding affinity to the estradiol receptor (displacement of (^3 H) estradiol, rabbit uterus cytosol). The conditions noted are these: uterus cytosol of female prepubertal rabbits; 18 hours at 40° C.; 2.5×10^-9 M (^3 H) estradiol; read-out: ED50 (concentration of substance displacing 50% (^3 H) estradiol from the estradiol receptor). Type of test: binding, rabbit (New Zealand). An excerpt: The determination of the binding affinity to the estradiol receptor was effected by means of the rabbit uterus cytosol.
The measurement of the bonding affinity to the estradiol receptor was affected by the method of N. Devleeschouwer, G. Leclercq, A. Danguy and J. C.

The next test has as its system uterus. As to the kind of experiment: Antiuterotropic effect (modified Dorfman test, uterus weight). Type of test: in vivo, rat (Spraque-Dawley, sexually mature female). The note with it: 3 mg/kg/day, esophageal tube, 21 days, six times per week; 10 animals. The procedure: The measurement of the antiuterotropic action was effected following a three-week treatment with the active ingredient of sexually mature, female rats. […] The antiuterotropic effect was determined by a modified Dorfman test (R. I. Dorfman, "Methods in Hormone Research II" p. 707, Academic Press, New York-London, 1962), on sexually mature female Spraque-Dawley rats. The test compounds were taken up in a 0.25% aqueous agar suspension and administered by esophageal tube over a period of 21 days, six times per week. Following the completion of the experiment, the uterus weight of animals treated with the active ingredient was related to the uterus weight of the control animals, which received only an empty agar suspension.

As to `CC[C@H](c1ccccc1)[C@@H](C(=O)c1ccc(OCCN(C)C)cc1)c1ccccc1` (relative stereo) [Compound 1, erythro-1-(4'-(2-dimethylaminoethoxy)-phenyl)-2,3-diphenyl-1-pentanone], the “Relative increase of average tumor surface” value in test [1] is recorded as 53%. The IC50 on estradiol receptor stood at 6 µM.

For the molecule `CC[C@H](c1ccccc1)[C@@H](C(=O)c1ccc(OCCN(CC)CC)cc1)c1ccccc1` (relative stereo) [Compound 2, erythro-1-(4'-(2-diethylaminoethoxy)-phenyl)-2,3-diphenyl-1-pentanone], on estradiol receptor, the IC50 is 4 µM. The “Weight of uterus compared to control animals” value in the test with uterus is listed as -54%. With `CC[C@H](c1ccccc1)[C@@H](C(=O)c1ccc(OCCN2CCCC2)cc1)c1ccccc1` (relative stereo) [Compound 3, erythro-2,3-diphenyl-1-(4'-(2-pyrrolidin-1-yl-ethoxy)-phenyl)-1-pentanone], on estradiol receptor, the IC50 was determined as 6 µM. Besides, in the test on uterus, the “Weight of uterus compared to control animals” value is -36%. On the same counts, the results for `CC[C@H](c1ccccc1)[C@@H](C(=O)c1ccc(OCCN2CCCCC2)cc1)c1ccccc1` (relative stereo) [Compound 4, erythro-2,3-diphenyl-1-(4'-(2-piperidin-1-yl-ethoxy)-phenyl)-1-pentanone] are 2.8 µM and -28%. On the same counts, the results for `CC[C@H](c1ccccc1)[C@@H](C(=O)c1ccc(OCCN(C)C)cc1)c1ccc(OC)cc1` (relative stereo) [Compound 5, erythro-1-(4'-(2-dimethylaminoethoxy)-phenyl)-2-(4'-methoxyphenyl)-3-phenyl-1-pentanone] are 4.5 µM and -47%. Consider `CC[C@H](c1ccccc1)[C@@H](C(=O)c1ccc(OCCN(CC)CC)cc1)c1ccc(OC)cc1` (relative stereo) [Compound 6, erythro-1-(4'-(2-diethylaminoethoxy)-phenyl)-2-(4'-methoxyphenyl)-3-phenyl-1-pentanone], for which, at estradiol receptor, the IC50 is 0.5 µM. As for `CC[C@H](c1ccccc1)[C@@H](C(=O)c1ccc(OCCN2CCCC2)cc1)c1ccc(OC)cc1` (relative stereo) [Compound 7, erythro-2-(4'-methoxyphenyl)-3-phenyl-1-(4'-(2-pyrrolidin-1-yl-ethoxy)-phenyl)-1-pentanone], the IC50 on estradiol receptor was 1.1 µM. In addition, the “Weight of uterus compared to control animals” value in the test with uterus is recorded as -43%.

On to `CC[C@H](c1ccccc1)[C@@H](C(=O)c1ccc(OCCN2CCCCC2)cc1)c1ccc(OC)cc1` (relative stereo) [Compound 8, erythro-2-(4'-methoxyphenyl)-3-phenyl-1-(4'-(2-piperidin-1-yl-ethoxy)-phenyl)-1-pentanone], for which the IC50 at estradiol receptor amounted to 0.0012 µM. `CC[C@H](c1ccccc1)[C@@H](C(=O)c1ccc(OCCN(C)C)cc1)c1ccc(O)cc1` (relative stereo) [Compound 9, erythro-1-(4'-(2-dimethylaminoethoxy)-phenyl)-2-(4'-hydroxyphenyl)-3-phenyl-1-pentanone]: the “Relative increase of average tumor surface” value in test [1] was determined as 30%. Further, on estradiol receptor, the IC50 came to 0.0054 µM. Also, the “Weight of uterus compared to control animals” value in the test on uterus is recorded as -54%. Consider `CC[C@H](c1ccccc1)[C@@H](C(=O)c1ccc(OCCN2CCCC2)cc1)c1ccc(O)cc1` (relative stereo) [Compound 10, erythro-2-(4'-hydroxyphenyl)-3-phenyl-1-(4'-(2-pyrrolidin-1-yl-ethoxy)-phenyl)-1-pentanone], for which the IC50 on estradiol receptor amounted to 0.08 µM.
